Measured values from article PMC4550876, “Discovery of γ-Mangostin as an Amyloidogenesis Inhibitor” (Scientific Reports, 2015).

How the values were obtained:
[1] = target: T1, V30M mutated TTR (Homo sapiens, UniProt P02766, V50M); test: Acid-mediated aggregation experiment (thioflavin T assay) of amyloid fibril formation; format: biochemical; conditions: 10 μM V30M; for EC50 / Inhibition ratio at 20 μM / inhibition at 20 µM: pH 4.5, 310 K, 96 h; for EC50: 0–20 μM compound, thioflavin T fluorescence; for Inhibition ratio at 20 μM / inhibition at 20 µM: 20 μM compound; for inhibition at 20 µM: read-out: Inhibition ratio at 20 μM
T1 construct: made in house
Excerpt: V30M mutated TTR (V30M), which is most commonly associated with FAP, was used in this study, along with the following commercially available compounds (Fig. 1 and Table 1): α-mangostin (α-M, 1), 3-isomangostin (2) 9-hydroxycalabaxanthone (3), γ-mangostin (γ-M, 4), gartanin (5), 8-deoxygartanin (6), garcinone C (7), norathyriol (8), 1,3,7-trihydroxy-2-prenylxanthone (9), 3,4,5,6-tetrahydroxyxanthone (10), 1,6,7-trihydroxyxanthone (11) and mangiferin (12). Amyloid fibril formation of V30M was induced by acidic pH and the amount of fibril was quantified using thioflavin T in the presence of 0–20 μM of the compounds. The EC50 values were calculated as previously described.
Thioflavin T assay was performed using V30M in [20 mM Tris-HCl pH 8.0 and 150 mM NaCl] and 10 mM stock solutions (ethanol) of xanthone derivatives. Prior to acid-mediated aggregation, 50 μL of V30M (100 μM) was incubated for 30 min in the presence of xanthone derivatives at room temperature. After the incubation, the pH was decreased to 4.5 by adding 450 μL of 50 mM sodium acetate pH 4.5. The sample was gently vortexed and incubated at 310 K for 96 h. At this time, the concentrations of V30M and the xanthone derivatives were 10 μM and 2.5-20 μM, respectively. The solution was 5.5-fold diluted with 200 mM Tris-HCl buffer (pH 8.0). Thioflavin T assays were performed via the addition of 10 mM thioflavin T to 1.8 μM TTR samples. The final concentration of thioflavin T was 20 μM. Fluorescence emission spectra were obtained with excitation and emission wavelengths of 440 and 484 nm, respectively. The fluorescence of the sample without incubation at pH 4.5 was used as a 100% control, and that of the sample in the absence of xanthone derivatives with incubation at pH 4.5 was used as a 0% control. The amyloid fibril inhibitory ratio (%) = 100 × [1 - (fluorescence at each concentration of xanthone derivatives - 100% control)/(0% control - 100% control)]. Amyloid fibril inhibitory curves were fitted using the 4-parameter logistic model by the least squares methods and at least 3 ligand concentrations were used[30]. EC50 was estimated according to this model.

[2] = target: T2, V30M tetramer (Homo sapiens, UniProt P02766, V50M); test: Glutaraldehyde cross-linking assay of quaternary structural stability at acidic pH; format: biochemical; conditions: pH 4.5, 310 K, 10 days, 3.6 μM V30M, compound 5 and 50 μM, SDS-PAGE
T2 construct: made in house
Method: The effect of the selected compounds on the quaternary structural stability of V30M at acidic pH was assessed using glutaraldehyde cross-linking followed by SDS-PAGE as previously described.
Glutaraldehyde cross-linking experiments were performed as previously described with some minor modifications. The stock solutions of the selected compounds were prepared in ethanol. Prior to the acid-mediated tetramer dissociation, V30M in solution [20 mM Tris-Cl pH 8.0 and 150 mM NaCl] was incubated with the compounds at room temperature for 30 min. After the incubation period, a 2-fold volume of 0.1 M sodium acetate pH 4.5 was added, and then the sample was incubated at 310 K for 10 days. At this stage, the protein concentration was 3.6 μM, and the compound concentrations were 5 and 50 μM. After the incubation period, 50 μL aliquots of the incubated samples were mixed with 2.5 μL of 25% glutaraldehyde and incubated at room temperature for 4 min, and the reactions were terminated by the addition of 5 μL of sodium borohydrate (7% (w/v) in 0.1 N NaOH). The aliquots were then mixed with SDS sample buffer, boiled and resolved by SDS-PAGE. The protein bands were visualized by silver staining.

[3] = target: T3, V30M (Homo sapiens, UniProt P02766, V50M); test: Intrinsic fluorescence quenching titration; format: binding; conditions: 2 μM TTR, excitation 280 nm, 0–20 μM γ-M
T3 construct: made in house
Method: (§1) V30M was titrated with various concentrations of γ-M. A previous study has shown that the binding to TTR induces quenching of the intrinsic fluorescence emission from TTR at 336 nm[22]. […] In addition, we performed a competitive binding assay using trans-resveratrol, which is known to bind to the T4-binding sites of TTR. […] For additional evidence, a pull-down assay was carried out using Sepharose 4B beads coupled with γ-M. V30M was detected in the Sepharose 4B-γ-M-coupled beads but not in Sepharose 4B beads alone or in Sepharose 4B beads alone with free γ-M (Fig. 2c).
(§2) The binding of γ-M to TTR was confirmed by an intrinsic emission fluorescence spectrum assay and a resveratrol competitive binding assay. For the intrinsic fluorescence, the spectra (300–400 nm) of 2 μM TTR in [50 mM Tris-HCl pH 7.5 and 150 mM NaCl] were recorded by exciting the protein at 280 nm[22]. […] The spectra were recorded at 0, 0.5, 2, 5 and 20 μM of γ-M. For the resveratrol competitive binding assay, the spectra (350–500 nm) of 2 μM TTR in [50 mM Tris-HCl pH 7.5 and 150 mM NaCl] were recorded by exciting trans-resveratrol at 320 nm[23]. The solutions of resveratrol and γ-M were sequentially added to the protein solution in the same manner as for the intrinsic fluorescence assay.

[4] = target: T4, T4-binding sites of V30M (Homo sapiens, UniProt P02766, V50M); test: Resveratrol competitive binding assay; conditions: 2 μM TTR, 5 μM resveratrol, excitation 320 nm
T4 construct: made in house
Method: as §1, §2

SMILES | EC50 [1] [µM] | inhibition at 20 µM [1] [%] | also measured
COc1c(O)cc2oc3cc(O)c(CC=C(C)C)c(O)c3c(=O)c2c1CC=C(C)C [Compound 1, α-mangostin] | 15 ± 0.75 | 61 | Inhibition ratio at 20 μM [1]: 61 ± 4.7%; tetramer fraction [2]: increased in a dose-dependent manner
COc1c(O)cc2oc3cc4c(c(O)c3c(=O)c2c1CC=C(C)C)CCC(C)(C)O4 [Compound 2, 3-isomangostin] | > 20 | 32 | Inhibition ratio at 20 μM [1]: 32 ± 1.3%
COc1c(O)cc2oc3cc4c(c(O)c3c(=O)c2c1CC=C(C)C)C=CC(C)(C)O4 [Compound 3, 9-hydroxycalabaxanthone] | > 20 | 29 | Inhibition ratio at 20 μM [1]: 29 ± 1.5%
CC(C)=CCc1c(O)cc2oc3cc(O)c(O)c(CC=C(C)C)c3c(=O)c2c1O [Compound 4, γ-mangostin] | 7 ± 0.6 | 97 ± 1.3 | quenching of the intrinsic fluorescence emission from V30M [3]: induced similar quenching; fluorescence intensity of resveratrol bound to V30M on addition of compound [4]: significantly decreased; tetramer fraction [2]: increased in a dose-dependent manner
CC(C)=CCc1c(O)c(CC=C(C)C)c2oc3c(O)ccc(O)c3c(=O)c2c1O [Compound 5, gartanin] | > 20 | 30 ± 0.79 | 
CC(C)=CCc1c(O)c(CC=C(C)C)c2oc3c(O)cccc3c(=O)c2c1O [Compound 6, 8-deoxygartanin] |  |  | inhibitory ability against amyloid fibril formation ([1]; up to 20 μM compound): did not exhibit the inhibitory ability
CC(C)=CCc1c(O)cc2oc3cc(O)c(O)c(CCC(C)(C)O)c3c(=O)c2c1O [Compound 7, garcinone C] | 10 ± 0.3 | 83 ± 0.23 | 
O=c1c2cc(O)c(O)cc2oc2cc(O)cc(O)c12 [Compound 8, norathyriol] | 9.7 ± 0.48 | 79 ± 0.49 | 
CC(C)=CCc1c(O)cc2oc3ccc(O)cc3c(=O)c2c1O [Compound 9, 1,3,7-trihydroxy-2-prenylxanthone] | 13 ± 1.1 | 67 ± 2.7 | 
O=c1c2ccc(O)c(O)c2oc2c(O)c(O)ccc12 [Compound 10, 3,4,5,6-tetrahydroxyxanthone] | > 20 | 25 ± 0.97 | 
O=c1c2cc(O)c(O)cc2oc2cccc(O)c12 [Compound 11, 1,6,7-trihydroxyxanthone] | 14 ± 0.51 | 64 ± 1.2 | 
O=c1c2cc(O)c(O)cc2oc2cc(O)c([C@@H]3O[C@H](CO)[C@@H](O)[C@H](O)[C@H]3O)c(O)c12 [Compound 12, mangiferin] | > 20 | 8.5 ± 2.1 | 
O=C(O)c1cc(-c2ccc(F)cc2F)ccc1O [diflunisal, reference compound] |  | 97 ± 1.7 | 
